In article PMC8699473, “An Easily Expandable Multi-Drug LC-MS Assay for the Simultaneous Quantification of 57 Oral Antitumor Drugs in Human Plasma” (Cancers, 2021):

Legend:
[1] = Freeze-thaw stability in spiked pooled human plasma; type: physicochemical
[2] = Autosampler stability of ready for injection samples; type: physicochemical, human
[3] = Long-term stability in spiked pooled human plasma
[4] = set-up: method as in supplement references [1-55] as printed per drug; details: minimum steady-state blood plasma concentration after multiple dose administration; ref supplement references [1-55] per drug; cited from earlier work
[5] = Short-term stability in spiked pooled human plasma (bench-top, 4 °C, 56 °C)

CCc1cc2c(cc1N1CCC(N3CCOCC3)CC1)C(C)(C)c1[nH]c3cc(C#N)ccc3c1C2=O [Alectinib]
Freeze-Thaw Accuracy [%] ([1]; validation standard 2xLLOV): 100.0% | Freeze-Thaw Accuracy [%] ([1]; validation standard LLOV): 91.2% | Freeze-Thaw Accuracy [%] ([1]; validation standard MOV): 101.2% | Freeze-Thaw Accuracy [%] ([1]; validation standard ULOV): 96.5% | Autosampler (24h, 4°C) Accuracy [%] ([2]; validation standard 2xLLOV): 99.6% | Autosampler (72h, 4°C) Accuracy [%] ([2]; validation standard 2xLLOV): 102.6% | Autosampler (24h, 4°C) Accuracy [%] ([2]; validation standard LLOV): 91.8% | Autosampler (72h, 4°C) Accuracy [%] ([2]; validation standard LLOV): 93.7% | Autosampler (24h, 4°C) Accuracy [%] ([2]; validation standard MOV): 104.1% | Autosampler (72h, 4°C) Accuracy [%] ([2]; validation standard MOV): 104.1% | Autosampler (24h, 4°C) Accuracy [%] ([2]; validation standard ULOV): 99.3% | Autosampler (72h, 4°C) Accuracy [%] ([2]; validation standard ULOV): 100.6% | Long-term stability, 1 month, -20°C Accuracy [%] ([3]; validation standard 2xLLOV): 87.1% | Long-term stability, 1 month, -80°C Accuracy [%] ([3]; validation standard 2xLLOV): 83.3% | Long-term stability, 2 month, -20°C Accuracy [%] ([3]; validation standard 2xLLOV): 86.4% | Long-term stability, 2 month, -80°C Accuracy [%] ([3]; validation standard 2xLLOV): 86.9% | Long-term stability, 3 month, -20°C Accuracy [%] ([3]; validation standard 2xLLOV): 82.7% | Long-term stability, 3 month, -80°C Accuracy [%] ([3]; validation standard 2xLLOV): 86.1% | Long-term stability, 6 weeks, 4°C, without daylight Accuracy [%] ([3]; validation standard 2xLLOV): 81.2% | Long-term stability, 1 month, -20°C Accuracy [%] ([3]; validation standard LLOV): 84.7% | Long-term stability, 1 month, -80°C Accuracy [%] ([3]; validation standard LLOV): 83.5% | Long-term stability, 2 month, -20°C Accuracy [%] ([3]; validation standard LLOV): 79.9% | Long-term stability, 2 month, -80°C Accuracy [%] ([3]; validation standard LLOV): 81.8% | Long-term stability, 3 month, -20°C Accuracy [%] ([3]; validation standard LLOV): 79.0% | Long-term stability, 3 month, -80°C Accuracy [%] ([3]; validation standard LLOV): 81.6% | Long-term stability, 6 weeks, 4°C, without daylight Accuracy [%] ([3]; validation standard LLOV): 75.7% | Long-term stability, 1 month, -20°C Accuracy [%] ([3]; validation standard MOV): 85.8% | Long-term stability, 1 month, -80°C Accuracy [%] ([3]; validation standard MOV): 83.9% | Long-term stability, 2 month, -20°C Accuracy [%] ([3]; validation standard MOV): 89.5% | Long-term stability, 2 month, -80°C Accuracy [%] ([3]; validation standard MOV): 89.3% | Long-term stability, 3 month, -20°C Accuracy [%] ([3]; validation standard MOV): 88.4% | Long-term stability, 3 month, -80°C Accuracy [%] ([3]; validation standard MOV): 86.7% | Long-term stability, 6 weeks, 4°C, without daylight Accuracy [%] ([3]; validation standard MOV): 92.7% | Long-term stability, 1 month, -20°C Accuracy [%] ([3]; validation standard ULOV): 85.2% | Long-term stability, 1 month, -80°C Accuracy [%] ([3]; validation standard ULOV): 81.7% | Long-term stability, 2 month, -20°C Accuracy [%] ([3]; validation standard ULOV): 88.3% | Long-term stability, 2 month, -80°C Accuracy [%] ([3]; validation standard ULOV): 88.1% | Long-term stability, 3 month, -20°C Accuracy [%] ([3]; validation standard ULOV): 84.7% | Long-term stability, 3 month, -80°C Accuracy [%] ([3]; validation standard ULOV): 84.8% | Long-term stability, 6 weeks, 4°C, without daylight Accuracy [%] ([3]; validation standard ULOV): 86.5%

COc1cc(Nc2c(C#N)cnc3cc(OCCCN4CCN(C)CC4)c(OC)cc23)c(Cl)cc1Cl [Bosutinib]
Freeze-Thaw Accuracy [%] ([1]; validation standard 2xLLOV): 89.9% | Freeze-Thaw Accuracy [%] ([1]; validation standard LLOV): 102.2% | Freeze-Thaw Accuracy [%] ([1]; validation standard MOV): 92.6% | Freeze-Thaw Accuracy [%] ([1]; validation standard ULOV): 94.6% | cmin [4]: 147 ng/mL

COc1cc2ncnc(Nc3ccc(F)c(Cl)c3)c2cc1NC(=O)/C=C/CN1CCCCC1 [Dacomitinib]
Freeze-Thaw Accuracy [%] ([1]; validation standard 2xLLOV): 92.5% | Freeze-Thaw Accuracy [%] ([1]; validation standard LLOV): 89.8% | Freeze-Thaw Accuracy [%] ([1]; validation standard MOV): 95.9% | Freeze-Thaw Accuracy [%] ([1]; validation standard ULOV): 96.3% | Autosampler (24h, 4°C) Accuracy [%] ([2]; validation standard 2xLLOV): 102.5% | Autosampler (72h, 4°C) Accuracy [%] ([2]; validation standard 2xLLOV): 99.5% | Autosampler (24h, 4°C) Accuracy [%] ([2]; validation standard LLOV): 93.3% | Autosampler (72h, 4°C) Accuracy [%] ([2]; validation standard LLOV): 92.3% | Autosampler (24h, 4°C) Accuracy [%] ([2]; validation standard MOV): 104.5% | Autosampler (72h, 4°C) Accuracy [%] ([2]; validation standard MOV): 100.5% | Autosampler (24h, 4°C) Accuracy [%] ([2]; validation standard ULOV): 98.4% | Autosampler (72h, 4°C) Accuracy [%] ([2]; validation standard ULOV): 98.0% | cmin [4]: 73.1 ng/mL | Long-term stability, 1 month, -20°C Accuracy [%] ([3]; validation standard 2xLLOV): 94.4% | Long-term stability, 1 month, -80°C Accuracy [%] ([3]; validation standard 2xLLOV): 91.2% | Long-term stability, 2 month, -20°C Accuracy [%] ([3]; validation standard 2xLLOV): 96.1% | Long-term stability, 2 month, -80°C Accuracy [%] ([3]; validation standard 2xLLOV): 107.1% | Long-term stability, 3 month, -20°C Accuracy [%] ([3]; validation standard 2xLLOV): 89.4% | Long-term stability, 3 month, -80°C Accuracy [%] ([3]; validation standard 2xLLOV): 94.7% | Long-term stability, 6 weeks, 4°C, without daylight Accuracy [%] ([3]; validation standard 2xLLOV): 62.3% | Long-term stability, 1 month, -20°C Accuracy [%] ([3]; validation standard LLOV): 86.5% | Long-term stability, 1 month, -80°C Accuracy [%] ([3]; validation standard LLOV): 87.2% | Long-term stability, 2 month, -20°C Accuracy [%] ([3]; validation standard LLOV): 96.8% | Long-term stability, 2 month, -80°C Accuracy [%] ([3]; validation standard LLOV): 105.1% | Long-term stability, 3 month, -20°C Accuracy [%] ([3]; validation standard LLOV): 83.4% | Long-term stability, 3 month, -80°C Accuracy [%] ([3]; validation standard LLOV): 96.1% | Long-term stability, 6 weeks, 4°C, without daylight Accuracy [%] ([3]; validation standard LLOV): 61.0% | Long-term stability, 1 month, -20°C Accuracy [%] ([3]; validation standard MOV): 91.7% | Long-term stability, 1 month, -80°C Accuracy [%] ([3]; validation standard MOV): 95.2% | Long-term stability, 2 month, -20°C Accuracy [%] ([3]; validation standard MOV): 95.1% | Long-term stability, 2 month, -80°C Accuracy [%] ([3]; validation standard MOV): 99.2% | Long-term stability, 3 month, -20°C Accuracy [%] ([3]; validation standard MOV): 90.9% | Long-term stability, 3 month, -80°C Accuracy [%] ([3]; validation standard MOV): 99.4% | Long-term stability, 6 weeks, 4°C, without daylight Accuracy [%] ([3]; validation standard MOV): 79.1% | Long-term stability, 1 month, -20°C Accuracy [%] ([3]; validation standard ULOV): 93.0% | Long-term stability, 1 month, -80°C Accuracy [%] ([3]; validation standard ULOV): 93.2% | Long-term stability, 2 month, -20°C Accuracy [%] ([3]; validation standard ULOV): 96.3% | Long-term stability, 2 month, -80°C Accuracy [%] ([3]; validation standard ULOV): 99.6% | Long-term stability, 3 month, -20°C Accuracy [%] ([3]; validation standard ULOV): 90.3% | Long-term stability, 3 month, -80°C Accuracy [%] ([3]; validation standard ULOV): 97.6% | Long-term stability, 6 weeks, 4°C, without daylight Accuracy [%] ([3]; validation standard ULOV): 77.8% | Short-time stability (1h, 56°C) Accuracy [%] ([5]; validation standard 2xLLOV): 30.6% | Short-time stability (24h, 4°C, without daylight) Accuracy [%] ([5]; validation standard 2xLLOV): 94.9% | Short-time stability (24h, RT, with daylight) Accuracy [%] ([5]; validation standard 2xLLOV): 86.7% | Short-time stability (24h, RT, without daylight) Accuracy [%] ([5]; validation standard 2xLLOV): 88.5% | Short-time stability (1h, 56°C) Accuracy [%] ([5]; validation standard LLOV): 10.3% | Short-time stability (24h, 4°C, without daylight) Accuracy [%] ([5]; validation standard LLOV): 90.8% | Short-time stability (24h, RT, with daylight) Accuracy [%] ([5]; validation standard LLOV): 74.6% | Short-time stability (24h, RT, without daylight) Accuracy [%] ([5]; validation standard LLOV): 72.7% | Short-time stability (1h, 56°C) Accuracy [%] ([5]; validation standard MOV): 37.3% | Short-time stability (24h, 4°C, without daylight) Accuracy [%] ([5]; validation standard MOV): 97.9% | Short-time stability (24h, RT, with daylight) Accuracy [%] ([5]; validation standard MOV): 89.8% | Short-time stability (24h, RT, without daylight) Accuracy [%] ([5]; validation standard MOV): 91.1% | Short-time stability (1h, 56°C) Accuracy [%] ([5]; validation standard ULOV): 33.3% | Short-time stability (24h, 4°C, without daylight) Accuracy [%] ([5]; validation standard ULOV): 92.4% | Short-time stability (24h, RT, with daylight) Accuracy [%] ([5]; validation standard ULOV): 85.6% | Short-time stability (24h, RT, without daylight) Accuracy [%] ([5]; validation standard ULOV): 89.1%
